Experimental data from US5314999A, “Derivatives of basic polyene macrolides and their preparation” (Laboratoires Mayoly-Spindler, priority 1989, dated 1994).
Where a name gives a salt, the structure may show the parent alone. Read-outs that look alike come from different tables or passages of the source.

Tests used:
[1] = tested on: Aspergillus flavus; assay: Diffusion method in agar-agar medium (Sabouraud agar-agar); format: cell-based; settings: for IC (1 cm inhibition zone): Aspergillus flavus, read-out: concentration giving a growth inhibition of 1 cm around a disc in solid medium
Description: (§1) A.2 : Study of the antibiotic efficiency of amphotericine B derivatives in agar-agar medium against Aspergillus
(§2) The antibiotic activity was tested by the diffusion method in agar-agar medium (Sabouraud agar-agar).
(§3) The efficiency of each molecule was determined by the size of the growth-inhibiting zone around a WHATMAN 3M paper disc impregnated with the antibiotic substance of a given concentration.
(§4) A suspension of Aspergillus spores in a broth was prepared, 0.2 ml of this suspension was used to inoculate at its surface an agar-agar medium which was solidified in such a manner that a homogeneous growth layer was obtained. After spreading, the WHATMAN 3M paper discs (diameter: 1 cm) were placed on the surface of the agar-agar, and then impregnated with 0.1 ml of the antibiotic substance at different concentrations.

[2] = tested on: Aspergillus fumigatus; assay: as above; format: cell-based; settings: for IC (1 cm inhibition zone): Aspergillus fumigatus, read-out: concentration giving a growth inhibition of 1 cm around a disc in solid medium
Description: as §1, §2, §3, §4

[3] = Toxicity on red corpuscles (lysis), human; format: cell-based; settings: human, red corpuscles, 37° C., 1 hour 30, read-out: LD 50 (dose which leads to lysis in 50% of the erythrocytes)
Description: (§5) B.1: Study of the toxicity on red corpuscles
(§6) All the solutions of the AmB derivatives according to the invention were prepared immediately before use by diluting 4 mg of substance in 100 μl of 5% glucose solution, and then, after 15 minutes protected from light, 100 μl of sterile distilled water are added, and the mixture is made up to stock solutions of 4 mg/ml with a 5% glucose solution. For comparative study of the effects of AmB, 4 mg of FUNGIZONE are diluted with 1 ml of 5% glucose.
(§7) The cells are prepared by placing 1 ml of a peripheral blood sample into a tube together with Ficollhypaque to remove the lymphocytes, and then centrifuging the mixture at 2000 rpm for 20 minutes. The remaining red corpuscles are recovered, washed once with 0.9% NaCl and then twice with 150 Mm KCl, 0.5 Mm tris-HCl, pH 7.4.
(§8) A 1.25% suspension is then prepared with 150 mM KCl solution, 0.5 mM tris-HCl, pH 7.4, and 150 μl thereof are distributed in wells along with 50 μl of each of the dilutions of the derivatives, plus a control well (5% glucose solution).
(§9) The cells are then incubated at 37° C. in a steam cabinet for 1 hour 30.
(§10) To evaluate the cell lysis, haemoglobin is essayed by removing 100 μl of the supernatant in each well and diluting the sample with 1 ml of distilled water.
(§11) The haemoglobin concentration is calculated by measuring the optical density at 540 nm and taking into account the absorption of the derivatives of amphotericine B.
(§12) LD 50 is the dose which leads to lysis in 50% of the erythrocytes (a control of 100% lysis is obtained with distilled water, and reference lysis of 0% is obtained with the 5% glucose solution).

[4] = Toxicity on nucleated cells, human bone marrow; format: cell-based; settings: 1 hour 30, trypan blue, read-out: LD 50 (concentration leading to a mortality of 50%)
Description: (§13) B.2: Study of the toxicity on nucleated cells
(§14) The solutions of the amphotericine B derivatives are prepared similarly to those mentioned in paragraph B.1.
(§15) The cells are prepared by placing 20 ml of blood diluted to 1/2 with 0.9% NaCl into a tube together with 10 ml of Ficoll-hypaque, and the mixture is centrifuged at 2000 rpm for 30 minutes. The cell nuclei are recovered and washed twice with PBS buffer containing 5% of foetal calf serum.
(§16) The cells are prepared by suspending 1.14×10^6 cells/ml in RPMI 1640 containing 2.5% of foetal calf serum and by filling each well with 150 μl. 50 μl of each dilution of the derivatives are added and also one control (5% glucose solution).
(§17) The cells are then incubated in a steam cabinet at a CO2 concentration of 5% for 1 hour 30 at 37° C. or at ambient temperature.
(§18) To evaluate the toxicity of the derivatives, a cell count in the presence of trypan blue is made, and the LD 50 (concentration of the derivative leading to a mortality of 50%) is calculated with respect to the control (5% glucose solution) for each concentration of each derivative.

[5] = tested on: Saccharomyces cerevisiae; assay: Growth inhibition in liquid medium (Sabouraud broth); format: cell-based; settings: Saccharomyces cerevisiae, 18 h, read-out: IC 50 (growth-inhibiting concentration of 50%)
Description: (§19) A.1 : Study of the antibiotic efficiency of AmB derivatives in liquid medium against different yeasts
(§20) The antibiotic efficiency was tested by the growth inhibition method in liquid medium (Sabouraud broth) in the presence of different concentrations of the derivatives studied.
(§21) A yeast suspension was cultivated in a broth in such a manner that about 1×10^2 cell/ml were obtained.
(§22) The tubes containing the different concentrations of antifungal substance were inoculated with the same amount of yeast cells, and were then incubated at 28° C. for 18 hours with stirring. For each concentration of antifungal substance, two identical tubes were prepared.
(§23) The inhibition of fungal growth corresponding to the different concentrations was evaluated for each molecule by spectrophotometry at 620 nm and expressed in percent with respect to a reference solution without antifungal substance.

[6] = tested on: Candida albicans; assay: as above; format: cell-based; settings: read-out: IC 50 (growth-inhibiting concentration of 50%)
Description: as §19, §20, §21, §22, §23

[7] = tested on: Pytirosporum orbiculare; assay: as above; format: cell-based; settings: read-out: IC 50 (growth-inhibiting concentration of 50%)
Description: as §19, §20, §21, §22, §23

[8] = tested on: Cryptoccocus neoformans; assay: as above; format: cell-based; settings: read-out: IC 50 (growth-inhibiting concentration of 50%)
Description: as §19, §20, §21, §22, §23

[9] = tested on: red corpuscles; assay: Toxicity on red corpuscles (lysis), mice; format: cell-based; settings: 37° C., 1 hour 30, 90 min, 90 min, read-out: LD 50 (dose which leads to lysis in 50% of the erythrocytes)
Description: as §5, §6, §7, §8, §9, §10, §11, §12

[10] = Toxicity on nucleated cells, mice T lymph gland cells; format: cell-based; settings: mouse, 1 hour 30, trypan blue, read-out: LD 50 (concentration leading to a mortality of 50%)
Description: as §13, §14, §15, §16, §17, §18

[11] = Toxicity on nucleated cells, mice B lymph gland cells; format: cell-based; settings: mouse, 1 hour 30, trypan blue, read-out: LD 50 (concentration leading to a mortality of 50%)
Description: as §13, §14, §15, §16, §17, §18

[12] = tested on: X 63 (mice lymphoma B); assay: Toxicity on nucleated cells, X 63 mice lymphoma B; format: cell-based; settings: 1 hour 30, trypan blue, 90 min, read-out: LD 50 (concentration leading to a mortality of 50%)
[13] = Toxicity on nucleated cells, DAUDI human lymphoma B; format: cell-based; settings: human, daudi lymphoma b cells, 1 hour 30, trypan blue, read-out: LD 50 (concentration leading to a mortality of 50%)
[14] = Toxicity on nucleated cells, mice thymocytes; format: cell-based; settings: mouse, thymocytes, 1 hour 30, trypan blue, read-out: LD 50 (concentration leading to a mortality of 50%)
[15] = tested on: PBL; assay: Toxicity on nucleated cells, human PBL; format: cell-based; settings: 90 min
Description: as §13, §14, §15, §16, §17, §18

[16] = Toxicity on nucleated cells, human thymocytes; format: cell-based; settings: 1 hour 30, trypan blue, read-out: LD 50 (concentration leading to a mortality of 50%)
Description: as §13, §14, §15, §16, §17, §18

[17] = Toxicity on nucleated cells, human PBL; format: cell-based; settings: human, pbl, human PBLs; AmB 12 derivative, comparison of different catalysts (Table 4); read-out: LD 50
Description: as §13, §14, §15, §16, §17, §18

[18] = tested on: Candida albicans B 2630; assay: Growth inhibition in liquid medium (Sabouraud broth); format: cell-based; settings: read-out: IC 50 (growth-inhibiting concentration of 50%)
Description: as §19, §20, §21, §22, §23

[19] = Solubility of the AmB derivatives; format: physicochemical; settings: 5% glucose solution, ambient temperature
Description: C.2. Solubility of the AmB derivatives according to the present invention
AmB or the derivatives obtained are dissolved at ambient temperature in a 5% glucose solution up to saturation.

[20] = background; cited from earlier work
[21] = tested on: red corpuscles; assay: Toxicity on red corpuscles (lysis), human; format: cell-based; settings: 37° C., 1 hour 30, 90 min, 90 min, read-out: LD 50 (dose which leads to lysis in 50% of the erythrocytes)
Description: as §5, §6, §7, §8, §9, §10, §11, §12

[22] = Toxicity on red corpuscles (lysis), mice; format: cell-based; settings: mouse, red blood cells, 37° C., 1 hour 30, read-out: LD 50 (dose which leads to lysis in 50% of the erythrocytes)
Description: as §5, §6, §7, §8, §9, §10, §11, §12

[23] = Toxicity on nucleated cells, X 63 mice lymphoma B; format: cell-based; settings: mouse, x 63 lymphoma cells, 1 hour 30, trypan blue, read-out: LD 50 (concentration leading to a mortality of 50%)
[24] = tested on: DAUDI (human lymphoma B); assay: Toxicity on nucleated cells, DAUDI human lymphoma B; format: cell-based; settings: 1 hour 30, trypan blue, 90 min, read-out: LD 50 (concentration leading to a mortality of 50%)
[25] = Sabouraud agar-agar, disc diameter 1 cm, 0.1 ml
[26] = Sabouraud broth, 28° C., 18 hours
[27] = human PBL, 1 hour 30, trypan blue, read-out: LD 50 (concentration leading to a mortality of 50%)

SMILES: CC1OC[C@@H](O)[C@H]([C@H](O)C(=O)CN[C@@H]2[C@H](O)[C@H](O[C@H]3/C=C/C=C/C=C/C=C/C=C/C=C/C=C/[C@H](C)[C@@H](O)[C@@H](C)[C@H](C)OC(=O)C[C@H](O)C[C@H](O)CC[C@@H](O)[C@H](O)C[C@H](O)C[C@]4(O)C[C@H](O)[C@@H](C(=O)O)[C@H](C3)O4)O[C@H](C)[C@H]2O)O1 (stereo partly drawn) [AmB 22 F, 1-deoxy-1-amino-4,6-O-ethylidene-D-fructosyl-AmB]
- IC (1 cm inhibition zone) [1, 25]: 150 µM
- concentration giving a growth inhibition of 1 cm around a disc in solid medium [2, 25]: 5 × 10^-4 molarity
- HC50 at 1.5 h [3]: 100 µM
- CC50 at 1.5 h [4]: 1000 µM
- IC50 [5, 26]: 1.6 µM
- IC50 [6, 26]: 0.56 µM
- IC50 [7, 26]: 0.18 µM
- IC50 [8, 26]: 0.25 µM
- HC50 [9]: 90 µM
- CC50 at 1.5 h [10]: 20 µM
- CC50 at 1.5 h [11]: 20 µM
- CC50 [12]: > 1000 µM
- CC50 at 1.5 h [13]: > 1000 µM
- CC50 at 1.5 h [14]: 3.5 µM
- CC50 [15, 27]: > 1000 µM
- CC50 at 1.5 h [16]: > 300 µM

SMILES: C[C@@H]1[C@H](O)[C@@H](C)/C=C/C=C/C=C/C=C/C=C/C=C/C=C/[C@H](O[C@@H]2O[C@H](C)[C@@H](O)[C@H](NC3O[C@H](C(N)=O)[C@@H](O)[C@H](O)[C@H]3O)[C@@H]2O)C[C@@H]2O[C@](O)(C[C@@H](O)C[C@@H](O)[C@H](O)CC[C@@H](O)C[C@@H](O)CC(=O)O[C@H]1C)C[C@H](O)[C@H]2C(=O)O (some centres unmarked) [Uncatalyzed NMG salt, reference compound]
- CC50 at 1.5 h [17]: 80 µM

SMILES: C[C@@H]1[C@H](O)[C@@H](C)/C=C/C=C/C=C/C=C/C=C/C=C/C=C/[C@H](O[C@@H]2O[C@H](C)[C@@H](O)[C@H](N)[C@@H]2O)C[C@@H]2O[C@](O)(C[C@@H](O)C[C@@H](O)[C@H](O)CC[C@@H](O)C[C@@H](O)CC(=O)O[C@H]1C)C[C@H](O)[C@H]2C(=O)O [AmB, amphotericine B, reference compound]
- IC (1 cm inhibition zone) [1]: 50 µM
- IC (1 cm inhibition zone) [2]: 50 µM
- IC50 [5]: 0.54 µM
- IC50 ([18]; B2630, 18 h): 0.35 µM
- IC50 ([6]; Candida albicans, 18 h): 0.08 µM
- IC50 ([7]; 18 h): < 0.01 µM
- IC50 ([8]; 18 h): 0.08 µM
- solubility (in words) [19]: insoluble
- solubility in water (in words) [20]: sparingly soluble in water

SMILES: C[C@@H]1[C@H](O)[C@@H](C)/C=C/C=C/C=C/C=C/C=C/C=C/C=C/[C@H](O[C@@H]2O[C@H](C)[C@@H](O)[C@H](NCC3(O)O[C@H](C(N)=O)[C@@H](O)[C@@H]3O)[C@@H]2O)C[C@@H]2O[C@](O)(C[C@@H](O)C[C@@H](O)[C@H](O)CC[C@@H](O)C[C@@H](O)CC(=O)O[C@H]1C)C[C@H](O)[C@H]2C(=O)O (stereo partly drawn) [AmB 12 F, 1-amino-1-deoxy-D-arabinoglucuronamidyl-AmB]
- concentration giving a growth inhibition of 1 cm around a disc in solid medium [1, 25]: 3 × 10^-4 molarity
- IC (1 cm inhibition zone) [2, 25]: 80 µM
- HC50 [21]: 100 µM
- CC50 at 1.5 h [4]: > 1000 µM
- IC50 [5, 26]: 1.1 µM
- IC50 ([18]; B2630, Sabouraud broth, 28° C., 18 hours): 0.24 µM
- IC50 ([6]; Candida albicans, 18 h, Sabouraud broth, 28° C., 18 hours): 0.09 µM
- IC50 [7, 26]: 0.096 µM
- IC50 ([8]; 18 h, Sabouraud broth, 28° C., 18 hours): 0.065 µM
- HC50 at 1.5 h [22]: 20 µM
- CC50 at 1.5 h [10]: 10 µM
- CC50 at 1.5 h [11]: 10 µM
- CC50 at 1.5 h [23]: > 1000 µM
- CC50 [24]: > 1000 µM
- CC50 at 1.5 h [14]: 4 µM
- CC50 [15, 27]: > 1000 µM
- CC50 ([15]; human PBLs, AmB 12 derivative, comparison of different catalysts (Table 4), listed as Oxalic acid NMG salt, read-out: LD 50 (the source's name)): > 1000 µM
- CC50 at 1.5 h [16]: > 300 µM
